Laboratory results from publication PMC12751141, “Disrupting α-Synuclein–ClpP interaction restores mitochondrial function and attenuates neuropathology in Parkinson’s disease models” (Molecular Neurodegeneration, 2025).

Key:
ClpP–αSyn interaction [1] = test: ClpP–αSyn proximity ligation assay in iPSC-derived neurons; assay type: cell-based, human; details: A53T-αSyn neurons; 1 µM, five days; n = 20 images per group
From the text: PD iPS cells lines (αSyn A53T, NN0004337, donor) and its isogenic corrected control line (NN0004344) were obtained from RUCDR Infinite Biologics. The iPS cells were differentiated into dopaminergic neuron-enriched neuronal culture with the protocol described previously. Briefly, iPS cell colonies were disassociated with accutase (Invitrogen), plated onto 6-well plates pre-coated with 2.5% Matrigel (BD Biosciences) and allowed to reach 80% confluence in mTeSR medium (Stem Cell Technology). For the first 10 days, cells were treated with SB431542 (10 µM; Tocris Bioscience) and Noggin (100 ng/ml) in Neural Media (NM) with FGF2 ([…]) and EGF ([…]). NM media contained: Neurobasal and DMEM/F12 (1:1), B-27 Supplement Minus Vitamin A (50×, Invitrogen), N2 Supplement (100X, Invitrogen), GlutaMAX (Invitrogen, 100×), 100 units/ml penicillin and 100 µg/ml streptomycin (Fisher); for the next 4 days, cells were treated with human recombinant Sonic hedgehog (SHH, 200 ng/ml) in neuronal differentiation medium. Neuronal differentiation medium contained Neurobasal and DMEM/F12 (1:3), B27, N2, GlutaMax and PS. […]
Proximity ligation assay (PLA) was performed using the Duolink® In Situ Starter Kit with Detection Reagents Green (mouse/rabbit; DUO92101, DUO92014). […] PLA puncta were detected as distinct fluorescent spots and imaged by confocal microscopy (Fluoview FV3000; Olympus). […]

ClpP–αSyn interaction [2] = test: Co-immunoprecipitation of ClpP with αSyn constructs in HEK293T cell lysates; assay type: cell-based; details: HEK293T lysates
Protocol: Myc-tagged WT- and A53T- αSyn, Myc-tagged ClpP, and Flag-tagged WT- and S153A- ClpP plasmids were self-constructed as previously described (Ref). To construct truncated-αSyn plasmids, pcDNA3.1(-) was digested with BsteII and XbaI, and ΔN-, ΔC- and ΔNAC-αSyn was PCR-amplified using self-designed primers and inserted into the plasmid backbone. Cells were transfected with TransIT-2020 (Mirus Bio, LLC) following the manufacturer’s protocol.
Cells or tissues were lysed in total lysis buffer (50mM Tris-HCl, pH 7.5, 150mM NaCl, 1% Triton X-100, and protease inhibitor). Total protein lysates (800 µg) were incubated with the indicated antibodies overnight at 4 °C followed by the addition of protein A/G beads (sc-2003, Santa Cruz) for 2 h at 4 °C. Various recombinant αSyn and Clpp (500 ng) were incubated in in vitro interaction buffer (20mM Tris-HCl pH 7.5, 100mM KCl, 2mM MgCl2 and 0.1% Triton-X100) for 30 min at room temperature, and then incubated with indicated antibodies overnight at 4 °C followed by the addition of protein A/G beads for 2 h at 4 °C. The beads with immuno-precipitates were pulled down at 4000 g and washed four times with total lysis buffer/in vitro interaction buffer in the presence of 0.1% Triton X-100 and were analyzed by western blot analysis.
Shown are representative blots of 3 independent experiments. Quantification of the ratio of αSyn over ClpP (pull-down) (n = 4, two-tailed Student’s t test, data are mean ± SEM).

CC(C)[C@H](NC(=O)CNC(=O)CNC(=O)CCCCCNC(=O)[C@H](CCCNC(=N)N)NC(=O)[C@H](CCCNC(=N)N)NC(=O)[C@H](CCCNC(=N)N)NC(=O)[C@H](CCC(N)=O)NC(=O)[C@H](CCCNC(=N)N)NC(=O)[C@H](CCCNC(=N)N)NC(=O)[C@H](CCCCN)NC(=O)[C@H](CCCCN)NC(=O)[C@H](CCCNC(=N)N)NC(=O)CNC(=O)[C@@H](N)Cc1ccc(O)cc1)C(=O)N[C@H](C(=O)N[C@H](C(=O)N[C@@H](C)C(=O)O)[C@@H](C)O)C(C)C [CS2, TAT-C6-GGVVTA]
ClpP–αSyn interaction by PLA (ClpP–αSyn interaction [1]): markedly reduced the ClpP–αSyn interaction
ClpP binding to ΔC-αSyn (ClpP–αSyn interaction [2]; Flag-ClpP + Myc-ΔC-αSyn): abolished
ClpP binding to ΔN-αSyn (ClpP–αSyn interaction [2]; Flag-ClpP + Myc-ΔN-αSyn): abolished
ClpP binding to WT-αSyn (ClpP–αSyn interaction [2]; WT αSyn, CS2: 24-hour treatment): abolished
